From US6914045B2, “Glycopeptide antibiotics” (Wyeth Holdings Corporation, priority 2001, dated 2005)
Values after ≈ are worked out from the molar mass of the structure shown.

Columns and labels:
Test in all cases: in vitro antibacterial evaluation, MIC by broth dilution
Assay type in all cases: cell-based
Escherichia coli = conditions: 18 hours at 35° C.
In short: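 MIC is the lowest antibiotic concentration (tested 64-0.06 μg/mL) preventing growth of a 5×10^5 CFU/mL inoculum. Determined by broth dilution in Mueller-Hinton II medium following NCCLS standard M7-A2.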

Streptococcus sp. = system: Streptococcus sp.
In short: (§1)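 Step 1: dilute antibiotic across 64-0.06 μg/mL in Muller-Hinton II […]. Step 2: inoculate at 5×10^5 CFU/mL.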

Enterococcus sp. = system: Enterococcus sp.
In short: as §1

Staphylococcus sp. = conditions: broth dilution, 18 hours at 35° C.; for MIC Staphylococcus aureus (ATCC 29213): strain ATCC 29213; for MIC Staphylococcus aureus (GC 1131): strain GC 1131; for MIC Staphylococcus aureus (GC 3051): strain GC 3051; for MIC Staphylococcus aureus (GC 3053): strain GC 3053; for MIC Staphylococcus aureus (GC 4541): strain GC 4541; for MIC Staphylococcus aureus (GC 4542): strain GC 4542; for MIC Staphylococcus aureus (GC 4544): strain GC 4544; for MIC Staphylococcus aureus (GC 4545): strain GC 4545
In short: as §1

[1] = broth dilution, 18 hours at 35° C.

Structure (SMILES): CC(c1ccccc1)C1NC(=O)CNC(=O)C(CO)NC(=O)C(C(O)C2CN(c3nc4ccccc4o3)C(=N)N2C2OC(CO)C(O)C(O)C2O)NC(=O)C(C(O)C2CNC(=Nc3nc4ccccc4o3)N2)NC(=O)C(Cc2ccc(OC3OC(CO)C(OC4OC(CO)C(O)C(O)C4O)C(O)C3O)cc2)NC1=O (stereo not drawn) [Example 93, Cyclo[glycyl-β-methylphenylalanyl-O-(4-O-hexopyranosylhexopyranosyl)tyrosyl-3-[2-(1,3-benzoxazol-2-ylimino)imidazolidin-4-yl]seryl-3-[1-(1,3-benzoxaxol-2-yl)-3-hexopyranosyl-2-iminoimidazolidin-4-yl]serylseryl]]
- MIC Escherichia coli (ATCC 25922) (Escherichia coli): >128 µg/mL
- MIC Escherichia coli (GC 4559) (Escherichia coli): >128 µg/mL
- MIC Escherichia coli (GC 4560) (Escherichia coli): >128 µg/mL
- MIC Streptococcus agalactiae (GC 4564) (Streptococcus sp.; [1]): >128 µg/mL
- MIC Streptococcus pneumoniae (ATCC 6301) (Streptococcus sp.; [1]): >128 µg/mL
- MIC Streptococcus pneumoniae (GC 1894) (Streptococcus sp.; [1]): 128 µg/mL (≈ 83.7 µM)
- MIC Streptococcus pneumoniae (GC 4565) (Streptococcus sp.; [1]): >128 µg/mL
- MIC Streptococcus pyogenes (GC 4563) (Streptococcus sp.; [1]): >128 µg/mL
- MIC Streptococcus pneumoniae (ATCC 6301) (Streptococcus sp.; broth dilution, 18 hours at 35° C.; strain ATCC 6301): >128 µg/mL
- MIC Streptococcus pneumoniae (GC 1894) (Streptococcus sp.; broth dilution, 18 hours at 35° C.; strain GC 1894): 128 µg/mL (≈ 83.7 µM)
- MIC Streptococcus pyogenes (GC 4563) (Streptococcus sp.; broth dilution, 18 hours at 35° C.; strain GC 4563): >128 µg/mL
- MIC Streptococcus agalactiae (GC 4564) (Streptococcus sp.; broth dilution, 18 hours at 35° C.; strain GC 4564): >128 µg/mL
- MIC Streptococcus pneumoniae (GC 4565) (Streptococcus sp.; broth dilution, 18 hours at 35° C.; strain GC 4565): >128 µg/mL
- MIC Enterococcus avium (GC 4558) (Enterococcus sp.; Enterococcus avium (GC 4558); broth dilution, 18 hours at 35° C.): 128 µg/mL (≈ 83.7 µM)
- MIC Enterococcus faecalis (ATCC 29212) (Enterococcus sp.; Enterococcus faecalis (ATCC 29212); broth dilution, 18 hours at 35° C.): >128 µg/mL
- MIC Enterococcus faecalis (GC 4552) (Enterococcus sp.; Enterococcus faecalis (GC 4552); broth dilution, 18 hours at 35° C.): >128 µg/mL
- MIC Enterococcus faecalis (GC 4553) (Enterococcus sp.; Enterococcus faecalis (GC 4553); broth dilution, 18 hours at 35° C.): >128 µg/mL
- MIC Enterococcus faecalis (GC 4554) (Enterococcus sp.; Enterococcus faecalis (GC 4554); broth dilution, 18 hours at 35° C.): >128 µg/mL
- MIC Enterococcus faecalis (GC 6189) (Enterococcus sp.; Enterococcus faecalis (GC 6189); broth dilution, 18 hours at 35° C.): >128 µg/mL
- MIC Enterococcus faecium (GC 2243) (Enterococcus sp.; Enterococcus faecium (GC 2243); broth dilution, 18 hours at 35° C.): >128 µg/mL
- MIC Enterococcus faecium (GC 4556) (Enterococcus sp.; Enterococcus faecium (GC 4556); broth dilution, 18 hours at 35° C.): >128 µg/mL
- MIC Enterococcus faecium (GC 4557) (Enterococcus sp.; Enterococcus faecium (GC 4557); broth dilution, 18 hours at 35° C.): 128 µg/mL (≈ 83.7 µM)
- MIC Enterococcus avium (GC 4558) (Enterococcus sp.; [1]): 128 µg/mL (≈ 83.7 µM)
- MIC Enterococcus faecalis (ATCC 29212) (Enterococcus sp.; [1]): >128 µg/mL
- MIC Enterococcus faecalis (GC 2242) (Enterococcus sp.; [1]): >128 µg/mL
- MIC Enterococcus faecalis (GC 2691) (Enterococcus sp.; [1]): >128 µg/mL
- MIC Enterococcus faecalis (GC 3059) (Enterococcus sp.; [1]): >128 µg/mL
- MIC Enterococcus faecalis (GC 4552) (Enterococcus sp.; [1]): >128 µg/mL
- MIC Enterococcus faecalis (GC 4553) (Enterococcus sp.; [1]): >128 µg/mL
- MIC Enterococcus faecalis (GC 4554) (Enterococcus sp.; [1]): >128 µg/mL
- MIC Enterococcus faecalis (GC 6189) (Enterococcus sp.; [1]): >128 µg/mL
- MIC Enterococcus faecium (GC 2243) (Enterococcus sp.; [1]): >128 µg/mL
- MIC Enterococcus faecium (GC 4556) (Enterococcus sp.; [1]): >128 µg/mL
- MIC Enterococcus faecium (GC 4557) (Enterococcus sp.; [1]): 128 µg/mL (≈ 83.7 µM)
- MIC Enterococcus faecalis (GC 2242) (Enterococcus sp.; broth dilution, 18 hours at 35° C.; strain GC 2242): >128 µg/mL
- MIC Enterococcus faecalis (GC 2691) (Enterococcus sp.; broth dilution, 18 hours at 35° C.; strain GC 2691): >128 µg/mL
- MIC Enterococcus faecalis (GC 3059) (Enterococcus sp.; broth dilution, 18 hours at 35° C.; strain GC 3059): >128 µg/mL
- MIC Coagulase Negative Staphylococcus (GC 4547) (Staphylococcus sp.): >128 µg/mL
- MIC Coagulase Negative Staphylococcus (GC 4548) (Staphylococcus sp.): >128 µg/mL
- MIC Coagulase Negative Staphylococcus (GC 4549) (Staphylococcus sp.): >128 µg/mL
- MIC Coagulase Negative Staphylococcus (GC 4551) (Staphylococcus sp.): >128 µg/mL
- MIC Staphylococcus aureus-SMITH (GC 4543) (Staphylococcus sp.): >128 µg/mL
- MIC Staphylococcus haemolyticus (GC 4546) (Staphylococcus sp.): >128 µg/mL
- MIC Staphylococcus aureus (ATCC 29213) (Staphylococcus sp.): >128 µg/mL
- MIC Staphylococcus aureus (GC 1131) (Staphylococcus sp.): >128 µg/mL
- MIC Staphylococcus aureus (GC 3051) (Staphylococcus sp.): >128 µg/mL
- MIC Staphylococcus aureus (GC 3053) (Staphylococcus sp.): >128 µg/mL
- MIC Staphylococcus aureus (GC 4541) (Staphylococcus sp.): >128 µg/mL
- MIC Staphylococcus aureus (GC 4542) (Staphylococcus sp.): >128 µg/mL
- MIC Staphylococcus aureus-SMITH (GC 4543) (Staphylococcus sp.; strain GC 4543): >128 µg/mL
- MIC Staphylococcus aureus (GC 4544) (Staphylococcus sp.): >128 µg/mL
- MIC Staphylococcus aureus (GC 4545) (Staphylococcus sp.): >128 µg/mL
- MIC Staphylococcus haemolyticus (GC 4546) (Staphylococcus sp.; strain GC 4546): >128 µg/mL
- MIC Coagulase Negative Staphylococcus (GC 4547) (Staphylococcus sp.; strain GC 4547): >128 µg/mL
- MIC Coagulase Negative Staphylococcus (GC 4548) (Staphylococcus sp.; strain GC 4548): >128 µg/mL
- MIC Coagulase Negative Staphylococcus (GC 4549) (Staphylococcus sp.; strain GC 4549): >128 µg/mL
- MIC Coagulase Negative Staphylococcus (GC 4551) (Staphylococcus sp.; strain GC 4551): >128 µg/mL

Structure (SMILES): Cc1ccc(OC(=O)Nc2cc(CC3NC(=O)C(C(C)c4ccccc4)NC(=O)CNC(=O)C(CO)NC(=O)C(C(O)C4CNC(=N)N4C4OC(CO)C(O)C(O)C4O)NC(=O)C(C(O)C4CNC(=N)N4)NC3=O)ccc2O)cc1 (stereo not drawn) [Example 19, Cyclo[glycyl-β-methylphenylalanyl-3-[[(4-methylphenoxy)carbonyl]amino]tyrosyl-3-(2-iminoimidazolidin-4-yl)seryl-3-(3-hexopyranosyl-2-iminoimidazolidin-4-yl)serylseryl]]
- MIC Escherichia coli (ATCC 25922) (Escherichia coli; strain ATCC 25922, broth dilution): 128 µg/mL (≈ 114 µM)
- MIC Escherichia coli (GC 4559) (Escherichia coli; strain GC 4559, broth dilution): 128 µg/mL (≈ 114 µM)
- MIC Escherichia coli (GC 4560) (Escherichia coli; strain GC 4560, broth dilution): 128 µg/mL (≈ 114 µM)
- MIC Streptococcus pneumoniae (ATCC 6301) (Streptococcus sp.; strain ATCC 6301; broth dilution, 18 hours at 35° C.): 128 µg/mL (≈ 114 µM)
- MIC Streptococcus pneumoniae (GC 1894) (Streptococcus sp.; strain GC 1894; broth dilution, 18 hours at 35° C.): 64 µg/mL (≈ 57.1 µM)
- MIC Streptococcus pyogenes (GC 4563) (Streptococcus sp.; strain GC 4563; broth dilution, 18 hours at 35° C.): >128 µg/mL
- MIC Streptococcus agalactiae (GC 4564) (Streptococcus sp.; strain GC 4564; broth dilution, 18 hours at 35° C.): >128 µg/mL
- MIC Streptococcus pneumoniae (GC 4565) (Streptococcus sp.; strain GC 4565; broth dilution, 18 hours at 35° C.): 128 µg/mL (≈ 114 µM)
- MIC Enterococcus faecalis (ATCC 29212) (Enterococcus sp.; strain ATCC 29212; broth dilution, 18 hours at 35° C.): >128 µg/mL
- MIC Enterococcus faecalis (GC 2242) (Enterococcus sp.; strain GC 2242; broth dilution, 18 hours at 35° C.): >128 µg/mL
- MIC Enterococcus faecium (GC 2243) (Enterococcus sp.; strain GC 2243; broth dilution, 18 hours at 35° C.): >128 µg/mL
- MIC Enterococcus faecalis (GC 2691) (Enterococcus sp.; strain GC 2691; broth dilution, 18 hours at 35° C.): >128 µg/mL
- MIC Enterococcus faecalis (GC 3059) (Enterococcus sp.; strain GC 3059; broth dilution, 18 hours at 35° C.): >128 µg/mL
- MIC Enterococcus faecalis (GC 4552) (Enterococcus sp.; strain GC 4552; broth dilution, 18 hours at 35° C.): >128 µg/mL
- MIC Enterococcus faecalis (GC 4553) (Enterococcus sp.; strain GC 4553; broth dilution, 18 hours at 35° C.): 128 µg/mL (≈ 114 µM)
- MIC Enterococcus faecalis (GC 4554) (Enterococcus sp.; strain GC 4554; broth dilution, 18 hours at 35° C.): >128 µg/mL
- MIC Enterococcus faecium (GC 4556) (Enterococcus sp.; strain GC 4556; broth dilution, 18 hours at 35° C.): >128 µg/mL
- MIC Enterococcus faecium (GC 4557) (Enterococcus sp.; strain GC 4557; broth dilution, 18 hours at 35° C.): 128 µg/mL (≈ 114 µM)
- MIC Enterococcus avium (GC 4558) (Enterococcus sp.; strain GC 4558; broth dilution, 18 hours at 35° C.): 128 µg/mL (≈ 114 µM)
- MIC Enterococcus faecalis (GC 6189) (Enterococcus sp.; strain GC 6189; broth dilution, 18 hours at 35° C.): >128 µg/mL
- MIC Staphylococcus aureus (ATCC 29213) (Staphylococcus sp.): >128 µg/mL
- MIC Staphylococcus aureus (GC 1131) (Staphylococcus sp.): >128 µg/mL
- MIC Staphylococcus aureus (GC 3051) (Staphylococcus sp.): >128 µg/mL
- MIC Staphylococcus aureus (GC 3053) (Staphylococcus sp.): >128 µg/mL
- MIC Staphylococcus aureus (GC 4541) (Staphylococcus sp.): >128 µg/mL
- MIC Staphylococcus aureus (GC 4542) (Staphylococcus sp.): >128 µg/mL
- MIC Staphylococcus aureus-SMITH (GC 4543) (Staphylococcus sp.; strain GC 4543): >128 µg/mL
- MIC Staphylococcus aureus (GC 4544) (Staphylococcus sp.): >128 µg/mL
- MIC Staphylococcus aureus (GC 4545) (Staphylococcus sp.): >128 µg/mL
- MIC Staphylococcus haemolyticus (GC 4546) (Staphylococcus sp.; strain GC 4546): >128 µg/mL
- MIC Coagulase Negative Staphylococcus (GC 4547) (Staphylococcus sp.; strain GC 4547): >128 µg/mL
- MIC Coagulase Negative Staphylococcus (GC 4548) (Staphylococcus sp.; strain GC 4548): >128 µg/mL
- MIC Coagulase Negative Staphylococcus (GC 4549) (Staphylococcus sp.; strain GC 4549): 128 µg/mL (≈ 114 µM)
- MIC Coagulase Negative Staphylococcus (GC 4551) (Staphylococcus sp.; strain GC 4551): >128 µg/mL
- MIC Coagulase Negative Staphylococcus (GC 6257) (Staphylococcus sp.; strain GC 6257): >128 µg/mL
